Common to all, as to format: physicochemical
A short description of series [1]: Tapped density (USP 24, method II). The note with it: for Tap. dens.: crystalline powder as obtained, trihydrate. From the text: In a preferred embodiment, the crystalline powder according to the invention has a tapped density higher than 0.6 g/ml, preferably higher than 0.7, more preferably higher than 0.8 g/ml. An increased tapped density improves the flow properties. Moreover, an increased tapped density is advantageous as more products may be fed into a certain volume, for instance a capsule. There is no specific upper limit for the tapped density. The tapped density may be less than 1.2 g/ml, for instance less than 1.1 g/ml, for instance less than 1.0 g/ml. The tapped density is preferably determined according to USP 24, method II, (page 1914).

Series [2] can be described thus: Particle size distribution by laser diffraction (Malvern particle sizer 2600 C). From the text:
The d10 and d50 are known ways for indicating a particle size distribution, d50 referring to the value for the particle size such that 50 vol. % of the crystals has a particle size smaller than said value. The d50 is also referred to as average volume-based grain size. Likewise, d10 refers to the value for the particle size such that 10 vol. % of the crystals has a particle size smaller than said value. A preferred way for determining d10 and d50 is laser diffraction, preferably using Malvern equipment. A suitable apparatus for […] determining d10 and d50 is a Malvern particle sizer 2600 C obtainable from Malvern Instruments Ltd., Malvern UK, using an objective of f=300 mm and a beam length of is 14.30 mm. A polydisperse analysis model may advantageously be used.
The particle size distribution (including d10 and d50) was determined using a Malvern particle sizer 2600 C with objective f=300 mm, malvern sample measurement unit PS1 and a Malvern dry powder feeder PS 64. The beam length was 14.30 mm. A polydisperse analysis model was used.

Series [3] in a line: Bulk density (USP 24, method I). To be noted: for Bulk dens.: crystalline powder as obtained, trihydrate. From the text:
The crystalline powder according according to this aspect of the invention has improved flow properties, without having to be subjected to processes such as granulation, compactation, agglomeration or aggregation, has good colour properties, good stability and a high dissolution rate. If it would still be desired to subject the crystalline powder to processes such as granulation, compactation, agglomeration or aggregation, and the like, applying these processes is facilitated due to the improved flow properties of the crystalline powder according to this aspect of the invention. Moreover, an increased quantity of crystalline powder can be fed into a capsule of a given size. The bulk density is preferably determined according to USP 24, method I, (page 1913). Preferably, of the crystalline powder has a bulk density higher than 0.46 g/ml, preferably higher than 0.5 g/ml, more preferably higher than 0.55 g/ml. This further improves the flow properties. Moreover, an increased bulk density is advantageous as crystalline powder may be fed into a certain volume, for instance a capsule. There is no specific upper limit for the bulk density. The bulk density may be less than 0.8 g/ml, for instance less than 0.7 g/ml.

A short description of series [4]: Free water content by dynamic vapour sorption (adsorption isotherm, VTI-SGA 100). The note with it: equilibrium relative humidity of 30%, 25° C. From the text:
The free water content of a sample can be determined by dynamic vapour sorption. The underlying principle is that the weight of the sample is monitored while it is contacted with air having a preconditioned relative humidity. As a result of water take-up or water release the sample weight will change until the equilibrium situation has been established. The sample weight in this equilibrium situation is the sample weight corresponding to the equilibrium relative humidity, the latter being the relative humidity of the preconditioned air with which the sample is contacted. By repeating this procedure for different values of the equilibrium relative humidity, the sample weight can be determined as a function of the equilibrium relative humidity. […]
As used herein, the free water content measured at an equilibrium relative humidity of 30% and at a temperature of 25° C. is in particular defined as ((w30-w10)/w10)*100%, wherein […]
The free water content, including the values for w30 and w10 are preferably determined using dynamic vapour sorption, for instance using a VTI-SGA 100 vapour sorption analyser. […]
Adsorption isotherms were determined using dynamic vapour sorption, using a VTI-SGA 100 vapour sorption analyser. […]

The mark [5] stands for this setting: crystalline powder as obtained, trihydrate.
Where [6] appears, read: overheads fraction after air jet sieving, 75 μm screen, 10 minutes.

Take `CC1(C)S[C@@H]2[C@H](NC(=O)[C@H](N)c3ccc(O)cc3)C(=O)N2[C@H]1C(=O)O.O.O.O` [Example V, amoxicillin trihydrate]: the Tap. dens. in series [1] was 0.47 g/mL. In addition, in series [2] (setting [5]), the d10 is reported as 17.4 μm and the d50 is reported as 66.3 μm. For the same molecule, the Bulk dens. in series [3] came to 0.25 g/mL.
`CC1(C)S[C@@H]2[C@H](NC(=O)[C@H](N)c3ccc(O)cc3)C(=O)N2[C@H]1C(=O)O` [Comp. A, amoxicillin, reference compound]: the “Free water content at ERH = 30%” value in series [4] amounted to 0.11 wt. %. In series [2] (crystalline powder as obtained), this molecule showed a d10 of 2.7 μm and a d50 of 8.3 μm.
On to `CC1(C)S[C@@H]2[C@H](NC(=O)[C@H](N)c3ccc(O)cc3)C(=O)N2[C@H]1C(=O)O.O.O.O` [Ex. I, amoxicillin trihydrate], for which the Tap. dens. in series [1] worked out at 0.73 g/mL. The “Free water content at ERH = 30%” value in series [4] worked out at 0.05 wt. %. In series [2] (setting [5]), this molecule returned a d10 of 11.4 μm and a d50 of 43.1 μm. This molecule also gave a Bulk dens. in series [3] of 0.51 g/mL.
As for `CC1(C)S[C@@H]2[C@H](NC(=O)[C@H](N)c3ccc(O)cc3)C(=O)N2[C@H]1C(=O)O.O.O.O` [Example VI, amoxicillin trihydrate], in series [1], the Tap. dens. came to 0.79 g/mL. In addition, the tapped density in series [1] (setting [6]) is 0.74 g/mL. Further, in series [2] (setting [5]), the d10 is listed as 19 μm and the d50 came out at 61 μm. In series [2] (setting [6]), this molecule came in with a d10 of 36 μm and a d50 of 86 μm. For the same molecule, the Bulk dens. in series [3] came out at 0.58 g/mL. This molecule also gave a bulk density in series [3] (setting [6]) of 0.59 g/mL.

(Values after patent US20060172987A1 (DSM IP Assets B.V., priority 2003, published 2006).)
